What was measured:
Assay type in all cases: cell-based, human
CRC cell lines [1] = assay: miRNA expression (TaqMan miRNA assays) in CRC cell lines treated with RNA pol II inhibitor; conditions: 50 μg/ml α-amanitin for 7 hours (FIG. 9)
Method: (§1) Additional materials and methods. CRC Cell line: CACO2, HCT116, RKO, SW48, SW480, and SW620. Tissue specimens: A total of 59 formalin-fixed, paraffin-embedded (FFPE) primary CRC tissues and corresponding liver metastasis tissues were analyzed. 5-Aza-2′-deoxycytidine (5-aza-dC) treatment: CRC cell lines were treated with 2.5 μM 5-aza-dC for 72 hours. α-amanitin treatment: CRC cell lines were treated with 50 μg/ml α-amanitin, a RNA pol II inhibitor, for 7 hours. Methylation analysis: Methylation levels were analyzed by bisulfite pyrosequencing for quantitative methylation analysis using PSQ HS 96A pyrosequencing system (Qiagen) on bisulfite modified genomic DNA template. microRNAs expression analysis: Expression of miR-373 and miR-520c was analyzed using TaqMan miRNA assays.

CRC cell lines [2] = assay: Alu methylation by quantitative bisulfite pyrosequencing in CRC cell lines treated with demethylating agent; conditions: for methylation status of global Alu repetitive element: 2.5 μM 5-aza-dC for 72 hours, pyrosequencing (FIG. 3)
Method: (§2) Cell lines and 5-aza-2-deoxy-cytidine treatment. Seven CRC cell lines, HCT116, RKO, SW48, Caco-2, HT29, SW480, and SW620 were obtained from the American Type Culture Collection (ATCC, Rockville, Md.). Cell lines were treated with 2.5 μM 5-Aza-2′-deoxycytidine (5-aza-dC; Sigma-Aldrich) for 72 hours, and fresh medium containing 5-aza-dC was replaced every 24 hours.
DNA methylation analysis. Methylation levels of repetitive sequences (global Alu and local Alu) were analyzed by quantitative bisulfite pyrosequencing using the PSQ HS 96A pyrosequencing system (Qiagen) following bisulfite modification of genomic DNA using EZ DNA methylation Gold Kits (Zymo Research), as described previously.
as §1

CRC cell lines [3] = assay: miRNA expression (TaqMan miRNA assays) in CRC cell lines treated with demethylating agent
Method: as §2
miRNA expression analysis. Expression of fourteen metastasis-related miRNAs (let-7i, miR-10b, miR-30b, miR-34a, miR-141, miR-200b, miR-200c, miR-203, miR-221, miR-320a, miR-373, miR-429, miR-518d, and miR-520c) was analyzed using TaqMan miRNA assays (Applied Biosystems Inc., Foster City, Calif.). Expression of RNU6B (Applied Biosystems Inc., Foster City, Calif.) and miR-16 were used as endogenous controls for cell lines and FFPE tissues, respectively.
as §1, with “5-Aza-2′-deoxycytidine (5-aza-dC) treatment: CRC cell lines were treated with 2.5 μM 5-aza-dC for 72 hours. α-amanitin treatment: CRC cell lines were treated with 50 μg/ml α-amanitin, a RNA pol II inhibitor, for 7 hours.” left out

CC[C@H](C)[C@@H]1NC(=O)CNC(=O)[C@@H]2Cc3c([nH]c4cc(O)ccc34)[S+]([O-])C[C@@H](NC(=O)CNC1=O)C(=O)N[C@@H](CC(N)=O)C(=O)N1C[C@H](O)C[C@H]1C(=O)N[C@@H]([C@@H](C)[C@@H](O)CO)C(=O)N2 (stereo in doubt) [RNA pol II inhibitor, α-amanitin]
expression of miR-520c (CRC cell lines [1]): inhibited the expression
miR-373 transcription / activation (CRC cell lines [1]): did not suppress activation
miR-373 transcription / activation (CRC cell lines [1]; listed as RNA polymerase II inhibitor): did not suppress

Nc1ncn([C@H]2C[C@H](O)[C@@H](CO)O2)c(=O)n1 [5-aza, 5-Aza-2′-deoxycytidine]
methylation status of global Alu repetitive element (CRC cell lines [2]): markedly demethylated
methylation status of global Alu repetitive element (CRC cell lines [2]; listed as 5-azacytidine): Global hypomethylation of Alu sequences was observed
methylation of Alu element in miR-373 promoter region (CRC cell lines [2]; 5Aza treatment): demethylated
expression of miR-373 (CRC cell lines [3]; demethylating agent treatment): induced
expression of miR-520c (CRC cell lines [3]; demethylating agent treatment (FIG. 6B)): induced

From patent US10519506B2, “Identification of metastasis-specific miRNA and hypomethylation signatures in human colorectal cancer” (Baylor Research Institute, priority 2011, dated 2019)
